From publication PMC7249060, “The Antiproliferative Effects of Flavonoid MAO Inhibitors on Prostate Cancer Cells” (Molecules, 2020)

Tests used:
hMAO-A = target: T1, hMAO-A (Homo sapiens, UniProt P21397); assay: MAO-Glow luminescence screen of KKRs at 100 μM; type: biochemical; settings: from screen at 100 μM, 37 °C, 60 min, LDS 40 μM
T1 construct: purchased Sigma-Aldrich Co. (St. Louis, MO, USA)
T1 sequence (P21397 1-527): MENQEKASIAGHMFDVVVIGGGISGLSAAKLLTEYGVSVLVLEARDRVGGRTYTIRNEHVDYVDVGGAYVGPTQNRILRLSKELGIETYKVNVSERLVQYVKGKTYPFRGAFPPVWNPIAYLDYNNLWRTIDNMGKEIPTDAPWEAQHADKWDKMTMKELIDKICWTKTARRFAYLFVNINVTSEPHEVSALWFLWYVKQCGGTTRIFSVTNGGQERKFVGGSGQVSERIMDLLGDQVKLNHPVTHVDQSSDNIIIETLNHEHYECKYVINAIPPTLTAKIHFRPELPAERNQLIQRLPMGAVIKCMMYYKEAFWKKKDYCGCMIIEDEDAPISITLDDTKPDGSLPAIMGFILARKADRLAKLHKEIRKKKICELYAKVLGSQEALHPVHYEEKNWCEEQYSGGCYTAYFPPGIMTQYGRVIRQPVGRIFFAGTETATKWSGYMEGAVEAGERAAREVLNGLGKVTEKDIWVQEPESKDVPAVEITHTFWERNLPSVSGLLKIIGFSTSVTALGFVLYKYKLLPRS
Procedure: We optimized our control hMAO-A and hMAO-B isozymes reactions in the incubation condition, at 37 °C for 1 h, by performing a luminescence assay using the MAO-Glow™ kit. Upon arrival, each isozyme was diluted with 10 mM HEPES in cold HBSS of pH 7.4. Afterward, the diluted isozymes were kept at −80 °C until use. Enzyme concentration optimization was accomplished by testing ten 2X serially diluted hMAO-A and hMAO-B concentrations for a final range of 7.00–0.01 U/mL each. The tested isozymes were incubated with LDS of 40 and 4 μM for isozymes A and B, respectively (recommended by Promega protocol), and a maximum of used DMSO of 1% final concentration. Different isozyme concentrations reactions at their initial velocities were monitored. Consequently, their required concentrations were defined to be 0.44 U/mL each. Additionally, ten different LDS concentrations, ranging from 0.3–150 μM, were monitored for optimizing and validating the linearity of the initial reaction for the hMAO-A mode of action. Subsequently, we chose a saturated substrate of 75 μM as a required concentration for the hMAO-A enzyme kinetic reactions.
The inhibitory effects of the synthesized KKRs of hMAO-A and B were tested by measuring the decrease in arbitrary light units (ALU) signal produced by the optimized isozymes using the MAO-Glow™ Assay at 37 °C. In this assay, DMSO stock for each KKR compound was diluted with a reaction buffer of pH 7.4 to make a 4X working solution for a maximum final concentration of 100 μM and ≤1% DMSO. The experiments were run in the absence and presence of 4X the miscellaneous standards of MAO-BIs (DEP, PARG, and SAF) and MAO-AIs (PIRL and CLORG), with similar concentrations. In white opaque 96-well microplates, 12.5 μL of each compound was plated at RT and was followed by 25 μL of 2X cold hMAO-A or hMAO-B, for a final concentration of 0.44 U/mL. A related buffer substituted each isozyme to make the blank wells and substituted each compound to make the negative control wells. Following this, we added 12.5 μL of 4X LDS to make a final substrate concentration of 40- and 4-μM for hMAO-A and hMAO-B, respectively. All screen plates were incubated at 37 °C for 60 min. The plates of 50 μL/well were then taken out from the incubator, and their reactions were stopped by an equal volume of 50 μL of reporter luciferin detection reagent (RLDR). After 30 min, the luminescence signals for all plates were read on a Synergy HTX Multi-reader from Bio-Tek (Winooski, VT, USA).

LNCaP cells = assay: Antiproliferation screen assay, resazurin, 72 h; type: cell-based, human; settings: 50 μM
Procedure: (§1) In this screen, we examined the growth inhibitory effects of all synthesized KKRs on the three human PCa cell lines LNCaP, DU145, and PC3. The antiproliferative clinical drug TAX of 0.25 μM was used as a positive control. Additionally, different standards of MAO-Is and FLUT were tested for their effect on the LNCaP cells. Briefly, the procedures and materials used were the same as for the viability assay except for the following—cultured cells were seeded at 10,000 cells/175-µL/well related experimental media, and the resazurin solution was added after 72 h of incubation with the compounds of 50 μM each.

DU145 cells [1] = assay: Scratch migration assay; type: cell-based, human; settings: preliminary data
Procedure: For in-vitro migration experiments, the PCa metastatic DU145 cell line was used. Cell proliferation and cytotoxicity were monitored for assay validation. The cells (passage # ≤ 10) were grown in fresh media of EMEM 10% FBS, 1% P/S. The cells were seeded in flat-bottom transparent 96-well microplates (100,000 cells/100 μL/well) in EMEM 5% FBS, 1% P/S experimental media. The next day, the confluent cells monolayer was artificially injured by scratching a line across each well, using a 200 μL tip. Immediately, the old media with the detached cells were replaced with 175 μL fresh warm experimental media. Intact cells were then treated with 25 μL of HBSS buffer 7.4 containing tested KKR. In addition to the negative control, KKR11 was tested at gradual concentrations to make finals of 40, 30, 23, 17, and 13 μM. The cells were then incubated for an additional 72 h for gap closure of the control wells.
At the gap closure time point, all cells were subjected to the crystal violet assay that only stains viable cells. Briefly, all media were carefully aspired from cells that were then washed with Ca- and Mg-free PBS. The cells were then fixed with 100 μL 0.25% v/v glutaraldehyde, at 37 °C for 20–30 min incubation time, and dried overnight. The next day, all viable attached cells were stained with a 100 μL crystal violet solution (0.1% in DI-water) for up to 30 min. The solution was then discarded, and the stained cells were kept dry for imaging. Images of the scratched areas were photographed using 10X phase contrast objective lenses of Motic-MXH-100-AE31E-Elite Inverted Microscope.

DU145 cells [2] = assay: Antiproliferation screen assay, resazurin, 72 h; type: cell-based, human; settings: 50 μM
Procedure: as §1

SMILES	IC90 (hMAO-A)	antiproliferative effect in screen (LNCaP cells)	effect on cell migration (DU145 cells [1])	antiproliferative effect in screen (DU145 cells [2])
COc1cc(O)c(C(=O)/C=C/c2ccc(Cl)c(Cl)c2)c(OC)c1 [KKR11, (E)-3-(3,4-dichlorophenyl)-1-(2-hydroxy-4,6-dimethoxyphenyl)prop-2-en-1-one]	< 100 µM	top five KKRs that kept standing out with antiproliferative effects	delayed cell migration	top effective
COc1cc(OC)c2c(=O)c(O)c(/C=C/c3cc(OC)c(OC)c(OC)c3)oc2c1 [KKR2A, (E)-3-hydroxy-5,7-dimethoxy-2-(3,4,5-trimethoxystyryl)-4H-chromen-4-one]	< 100 µM	no effects on any of the screened PCa cell models		no effects on any of the screened PCa cell models
O=c1c(O)c(-c2ccccc2)oc2c(Cl)cc(Cl)cc12 [KKR7, 6,8-dichloro-3-hydroxy-2-phenyl-4H-chromen-4-one]	< 100 µM		no significant effects against cell migration	top effective

Second part, led by results:

IC90 (hMAO-A)	SMILES	antiproliferative effect in screen (LNCaP cells)	effect on cell migration (DU145 cells [1])	antiproliferative effect in screen (DU145 cells [2])
< 100 µM	O=C(/C=C/c1ccccc1)c1cc(Cl)cc(Cl)c1O [KKR20, (E)-1-(3,5-dichloro-2-hydroxyphenyl)-3-phenylprop-2-en-1-one]	top five KKRs that kept standing out with antiproliferative effects	no significant effects against cell migration	
< 100 µM	O=c1cc(-c2ccccc2)oc2cc(Cl)c(Cl)cc12 [KKR21, 6,7-dichloro-2-phenyl-4H-chromen-4-one]	no effects on any of the screened PCa cell models		no effects on any of the screened PCa cell models
